Laboratory results published in patent US7115574B2, “System and method for support legacy operating system booting in a legacy-free system” (priority 2001, dated 2006).
Values joined by “and” are separate entries in the source; they are usually repeats but may differ in a detail not shown here. Equal entries are not always repeated.

Experiments:
Type in all cases: cell-based
[1] = tested on: N9 clone of murine microglial cells; test: TNF-α, IL-6 and NO2− production by LPS+IFN-γ activated microglia; details: for concentration most effective at inhibiting cytokine formation: LPS+IFN-γ stimulated microglia, 1-100 μM tested
Procedure: See Delgado, R., Carlin, A., Alraghi, L., Demitri, M., Meda, L., Galimberti, D., Pierluigi, B., Lipton, J. M., Catania, A., Melanocortin Peptides Inhibit Production of Proinflammatory Cytokines and Nitric Oxide by Activated Microglia, 63 J. of Leukocyte Biol. 740 (1998). […] The N9 clone of murine microglial cells was obtained by immortalization of embryonic brain cultures with the 3RV retrovirus carrying an activated v-myconcogene. N9 cells were cultured in T-75-cm^2 culture flasks (Coming, Cambridge, Mass.) and maintained at 37° C. in a humidified incubator under 5% CO2 atmosphere in RPMI 1640 supplemented with 2 mM L-glutamine, 50 U/mL penicillin G, 50 μg/mL streptomycin sulfate (GIBCO-BBL, Paisley, UK), and 10% heat-inactivated fetal bovine serum (FBS, Hyclone Lab, Inc., Logan, Utah) until experiments were performed. Cells were used between the first and the tenth passage.
Sub-confluent microglial cells were washed twice with phosphate-buffered saline (PBS) and incubated with trypsin 0.025% and ethylenediaminetetraacetate (EDTA) 0.02% without calcium and magnesium for 3 min. at 37° C. to detach the cells from the culture flask. Cells were then resuspended in medium and incubated in 24-well tissue-culture plates at a concentration of 2×10^5 cells/mL for 16 h in a humidified incubator (37° C., 5% CO2). Growth medium was removed and cell monolayers were stimulated with 10 ng/mL lipopolysaccharide (LPS, from Escherichia coli 055:B5, Sigma Chemical Co., St. Louis, Mo.) plus 1 U/ml, murine IFN-γ (Sigma). […] Although production of TNF-α and NO was reduced to even much lower concentrations of the peptides, concentrations in the micromolar range had the most profound and consistent inhibitory effects. […] Cell-free supernatants were harvested after 24 h incubation and assayed for TNF-α, IL-6 and NO2. Viability of cells was assessed by trypan blue exclusion for each experimental condition: it was consistently >98%. Dexamethasone (Sigma) and N-monomethyl-L-arginine (L-NMMA: 100 μM, Cayman Chemical, Ann Arbor, Mich.) were used as positive controls for TNF-α and NO inhibition, respectively. Tests were repeated in at least three independent experiments and assays were performed in triplicate.
TNF-α bioactivity was measured in supernatants of cell cultures by standard cytotoxicity assay using L929 cells and recombinant human TNF-α (Sigma) as standard. The detection limit of the bioassay was 20 pg/mL. IL-6 was measured using a commercial murine enzyme-linked immunosorbent assay (ELISA: RPN 2714, Amersham, Little Chalfont, UK).
NO is rapidly oxidized to nitrite in culture medium, and nitrite (NO2^−) concentration is an indicator of NO production. Cell-free culture supernatants were mixed with equal amounts of Griess reagent (1% sulfanilamide, 0.1% naphtylethylenediamide in 2.5% phosphoric acid) in wells of 96-well ELISA plates. Samples were incubated at room temperature for 10 min and absorbance was measured at 540 nm with the use of a microplate reader. Nitrite […] concentrations were calculated using a sodium nitrite standard curve.
Effects of melanocortin peptides on cytokine and NO production were evaluated by repeated measures analysis of variance followed by Dunnet's test for specific comparisons. Probability values less than 0.05 were considered significant.

[2] = tested on: C. albicans killing by human neutrophils; test: C. albicans killing by human neutrophils; details: 10^−12M to 10^−4M; 2 hours at 37° C.; p<0.01
Procedure: Venous blood (20 ml) from health volunteers was anticoagulated with heparin. Neutrophils were isolated using dextran sedimentation and Ficoll-Hypaque (Sigma Chemical Co., St. Louis, […]., USA) centrifugation. Erythrocytes were lysed via hypotonic shock. Neutrophils represented at least 97% of the cell suspension. Cell viability, estimated by trypan blue exclusion, was >98%. Neutrophils were suspended to a final concentration in HBSS.
C. albicans (1×10^6) were opsonized with human AB serum in a shaking water bath for 30 minutes at 37° C. […] After incubation, the culture tubes were placed on ice to stop growth and extracellular organisms were washed twice with centrifugation at 1000×g at 4° C. A 2.5% sodium desoxycholoate solution was added to obtain a suspension of 10^6 cells/ml. Two 1/100 serial dilutions in HBSS were made to obtain a final suspension of 100 cells/ml. Aliquots of 1 ml were dispensed on blood agar plates and incubated for 48 hours at 37° C. Colony forming units (CFUs) were counted at the end of the incubation period. Experiments were run in triplicate and repeated using blood from 5 different donors.

[3] = tested on: C. albicans; test: cAMP content of C. albicans (EIA); details: 10^−6 M; for cAMP content in the yeast: 3 minutes, permeabilized C. albicans
Procedure: C. albicans (10^6/ml), permeabilized with toluene/ethanol, were incubated at 37° C. with continuous shaking in the presence of 10^−6 M α-MSH(1-13) (SEQ ID NO: 3), (11-13), (SEQ ID NO: 1), forskolin, an agent known to increase intracellular cAMP, or in medium alone. The reaction was stopped after 3 minutes by the addition of ice cold ethanol, cAMP was measured in duplicate using a commercial enzyme immunoassay (EIA) kit (Amersham, United Kingdom) after extraction via the liquid-phase method according to manufacturer's instructions. The effect of forskolin (10^−6 M) on C. albicans colony formation was determined using the same procedure as for α-MSH peptides.

[4] = tested on: C. albicans; test: C. albicans colony forming units (candidacidal activity); details: for C. albicans colony forming units (CFU): FIG. 1, incubation 2 hours at 37° C.; for relative potency in reducing C. albicans viability: FIG. 2, 10^−4M melanocortin peptides
Procedure: C. albicans (clinical isolate) was obtained from the collection of the Department of Microbiology, Ospedale Maggiore di Milano and maintained on Sabouraud's agar slants and periodically transferred to Sabouraud's agar plates and incubated for 48 hours at 28° C. To prepare a stationary growth phase yeast, a colony was taken from the agar plate and transferred into 30 ml Sabouraud-dextrose broth and incubated for 72 hours at 32° C. Cells were centrifuged and suspended in Hank's balanced salt solution (“HBSS”) to the desired concentration. Viability, determined by the exclusion of 0.01% methylene blue, remained >98%.
C. albicans (1×10^6/ml in HBSS) was incubated in the presence or absence or α-MSH(1-13) (SEQ ID NO: 3) or (11-13) (SEQ ID NO: 1) at concentrations in the range of 10^−15 M to 10^−6 M for 2 hours at 37° C. Cells were then washed in cold distilled water and diluted with HBSS to a concentration of 100 organisms/ml. One-ml aliquots were dispensed on blood agar plates and incubated for 48 hours at 37° C. Organism viability was estimated from the number of colonies formed.
In subsequent experiments using familiar procedures we compared activity of α-MSH(4-10) (SEQ ID NO: 10), (6-13) (SEQ ID NO: 2), (11-13) (SEQ ID NO: 1), ACTH(1-39) (SEQ ID NO: 9), (18-39) (SEQ ID NO: 11) and fluconazole, the latter an established antifungal agent. Melanocortin peptides and fluconazole were tested in concentrations of 10^−6 M to 10^−4 M. There were at least six replicates for each concentration of peptide. […]

[5] = microglia stimulated with LPS+IFN-γ for 24 hr, micromolar concentrations

Ac-Lys-Pro-Val-NH2 [α-MSH(11-13)]
concentration most effective at inhibiting cytokine formation [1]: 1 µM | killing of C. albicans by human neutrophils [2]: enhanced the killing | increase in cAMP relative to equimolar forskolin [3]: same order of magnitude | cAMP content in the yeast [3]: enhanced cAMP content | C. albicans colony forming units (CFU) [4]: greatly reduced | relative potency in reducing C. albicans viability [4]: most effective

SYSMEHFRWGKPV [α-MSH(1-13)]
concentration most effective at inhibiting cytokine formation [1]: 10 µM | reduction of production of IL-6 [1, 5]: 31% and 50% | reduction of production of NO2^− [1, 5]: 42% and 40% | reduction of production of TNF-α [1, 5]: 43% and 45% | killing of C. albicans by human neutrophils [2]: enhanced the killing | cAMP content in the yeast [3]: enhanced cAMP content | C. albicans colony forming units (CFU) [4]: greatly reduced | relative potency in reducing C. albicans viability [4]: most effective
